Changes are numbered by the printed parent chain. Where two headings read alike, the source gives them in different places.
Legend:
RET (658-1114) = biological target: T1, RET (658-1114) (Homo sapiens, UniProt P07949); test: HiBiT-Degradation, RET wild-type degradation assay (Nano-Glo HiBiT Lytic), 293T.144 cells; assay type: cell-based; details: for DC50 / Emax: 6.0 hours; for DC50: read-out: 293T.144 RET (658-1114) 6.0 hours (DC50); for Emax: read-out: 293T.144 RET (658-1114) 6.0 hours (Emax)
T1 construct: 658-1114; expressed in transfected cells; host or cells: 293T.144 (293T cells, generated in-house)
T1 sequence (P07949 658-1114): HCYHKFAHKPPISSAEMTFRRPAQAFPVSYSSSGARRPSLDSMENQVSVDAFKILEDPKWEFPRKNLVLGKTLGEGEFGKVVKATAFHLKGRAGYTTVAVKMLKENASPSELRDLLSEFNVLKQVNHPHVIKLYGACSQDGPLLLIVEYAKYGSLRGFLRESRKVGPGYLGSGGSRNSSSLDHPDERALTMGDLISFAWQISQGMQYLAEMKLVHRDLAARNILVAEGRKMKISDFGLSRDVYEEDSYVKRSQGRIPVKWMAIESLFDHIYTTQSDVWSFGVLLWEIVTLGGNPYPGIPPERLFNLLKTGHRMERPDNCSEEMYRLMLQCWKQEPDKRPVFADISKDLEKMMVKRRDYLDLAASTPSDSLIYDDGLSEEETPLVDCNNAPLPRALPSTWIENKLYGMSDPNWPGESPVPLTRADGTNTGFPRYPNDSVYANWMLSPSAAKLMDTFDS
Summary of the method: (§1)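 Luminescence readout of HiBiT-tagged RET kinase domain remaining after 6 h compound exposure. Cells: 293T.144 (wild type) or 293T.165 (G810R), 11 half-log doses up to 10 μM, duplicates. DC50 and Emax as % remaining protein taken from curve fits.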

RET(KD: 658-1114 G810R) = biological target: T2, RET(KD: 658-1114 G810R) (Homo sapiens, UniProt P07949, G810R); test: HiBiT-Degradation, RET G810R degradation assay (Nano-Glo HiBiT Lytic), 293T.165 cells; assay type: cell-based; details: for Emax / DC50: 6.0 hours; for Emax: % remaining protein, read-out: 293T.165 RET(KD: 658-1114 G810R) 6.0 hours (Emax); for DC50: read-out: 293T.165 RET(KD: 658-1114 G810R) 6.0 hours (DC50)
T2 construct: 658-1114; expressed in transfected cells; host or cells: 293T.165 (293T cells, generated in-house)
T2 sequence (P07949 658-1114 G810R): T1 sequence (P07949 658-1114) with G153R
Summary of the method: as §1

[1] = half-maximal degradation concentration

Row | SMILES | 293T.144 RET (658-1114) 6.0 hours (IP) [nM] (RET (658-1114); HiBiT-Degradation) | DC50 (RET (658-1114); HiBiT-Degradation) [nM] | Emax (RET (658-1114); HiBiT-Degradation) [%] | Emax (RET(KD: 658-1114 G810R)) [%] | DC50 (RET(KD: 658-1114 G810R); [1]) [nM] | 293T.165 RET(KD: 658-1114 G810R) 6.0 hours (Emax) (RET(KD: 658-1114 G810R); HiBiT-Degradation) | 293T.165 RET(KD: 658-1114 G810R) 6.0 hours (IP) [nM] (RET(KD: 658-1114 G810R); HiBiT-Degradation) | DC50 (RET(KD: 658-1114 G810R); HiBiT-Degradation) [nM] | 293T.144 RET (658-1114) 6.0 hours (IP) [nM] (RET (658-1114)) | Emax (RET (658-1114); % remaining protein) [%] | DC50 (RET (658-1114); [1]) [nM] | 293T.165 RET(KD: 658-1114 G810R) 6.0 hours (IP) [nM] (RET(KD: 658-1114 G810R))
1 | N#Cc1cnn2cc(-c3cnn(C4CCN(C(=O)CN5CCC(c6ccc(NC7CCC(=O)NC7=O)cc6F)CC5)CC4)c3)cc(-c3ccc(N4CCC(Nc5ccccc5)CC4)nc3)c12 (stereo not drawn) [Compound 46, 4-[6-(4-anilino-1-piperidyl)-3-pyridyl]-6-[1-[1-[2-[4-[4-[(2,6-dioxo-3-piperidyl)amino]-2-fluoro-phenyl]-1-piperidyl]acetyl]-4-piperidyl]pyrazol-4-yl]pyrazolo[1,5-a]pyridine-3-carbonitrile] | ++++ (< 50 nM = ++++) | < 50 | < 30 | < 50 | < 100 | +++ (<50% = +++) | ++++ (< 50 nM = ++++) | < 100 |  |  |  | 
2 | CCC1(C(=O)NC(C)(C)C)CCN(c2ccc(-c3nc(-c4cnn(C5CCN(C(=O)CC6(O)CCN(c7ccc(NC8CCC(=O)NC8=O)cc7Cl)CC6)CC5)c4)cn4ncc(C#N)c34)cn2)CC1 (stereo not drawn) [Compound 102, N-tert-butyl-1-[5-[6-[1-[1-[2-[1-[2-chloro-4-[(2,6-dioxo-3-piperidyl)amino]phenyl]-4-hydroxy-4-piperidyl]acetyl]-4-piperidyl]pyrazol-4-yl]-3-cyano-pyrazolo[1,5-a]pyrazin-4-yl]-2-pyridyl]-4-ethyl-piperidine-4-carboxamide] |  |  |  | < 30 | < 50 |  |  |  | ++++ (<50 nM = ++++) | < 30 | < 50 | ++++ (<50 nM = ++++)
3 | CCC1(C(=O)NC2CCC2)CCN(c2ccc(-c3nc(-c4cnn([C@H]5C[C@](F)(CN6CCN(c7ccc(N[C@H]8CCC(=O)NC8=O)cc7F)CC6)C5)c4)cn4ncc(C#N)c34)cn2)CC1 [Compound 186, 1-[5-[3-cyano-6-[1-[3-[[4-[4-[[(3S)-2,6-dioxo-3-piperidyl]amino]-2-fluoro-phenyl]piperazin-1-yl]methyl]-3-fluoro-cyclobutyl]pyrazol-4-yl]pyrazolo[1,5-a]pyrazin-4-yl]-2-pyridyl]-N-cyclobutyl-4-ethyl-piperidine-4-carboxamide] |  |  |  | < 50 | < 50 |  |  |  | ++++ (<50 nM = ++++) | < 50 | < 50 | ++++ (<50 nM = ++++)
4 | CCC1(C(=O)NC2CCC2)CCN(c2ccc(-c3nc(-c4cnn([C@H]5CC[C@H](N6CCC(c7ccc(NC8CCC(=O)NC8=O)cc7)CC6)CC5)c4)cn4ncc(C#N)c34)cn2)CC1 (single isomer, unassigned) [Compound 126, 1-(5-(3-cyano-6-(1-((1r, 4r)-4-(4-(4-((2,6-dioxopiperidin-3-yl)amino)phenyl)piperidin-1-yl)cyclohexyl)-1H-pyrazol-4-yl)pyrazolo[1,5-a]pyrazin-4-yl)pyridin-2-yl)-N-cyclobutyl-4-ethylpiperidine-4-carboxamide] |  |  |  | < 30 | < 50 |  |  |  | ++++ (<50 nM = ++++) | < 30 | < 50 | ++++ (<50 nM = ++++)
5 | CC(C)NC(=O)C1(C(C)C)CCN(c2ccc(-c3cc(-c4cnn(C5CCN(C(=O)CN6CCC(c7ccc(NC8CCC(=O)NC8=O)cc7F)CC6)CC5)c4)cn4ncc(C#N)c34)cn2)CC1 (stereo not drawn) [Compound 56, 1-[5-[3-cyano-6-[1-[1-[2-[4-[4-[(2,6-dioxo-3-piperidyl)amino]-2-fluoro-phenyl]-1-piperidyl]acetyl]-4-piperidyl]pyrazol-4-yl]pyrazolo[1,5-a]pyridin-4-yl]-2-pyridyl]-N,4-diisopropyl-piperidine-4-carboxamide] | ++++ (< 50 nM = ++++) | < 50 | < 30 | < 50 | < 100 | +++ (<50% = +++) | ++++ (< 50 nM = ++++) | < 100 |  |  |  | 
6 | COc1cc(N2CCN([C@H]3CC[C@H](n4cc(-c5cn6ncc(C#N)c6c(-c6ccc(N7C[C@H]8COC[C@@H](C7)N8Cc7ccc(F)cc7)nc6)n5)cn4)CC3)CC2)c(F)cc1NC1CCC(=O)NC1=O (relative stereo) [Compound 164, 6-[1-[4-[4-[4-[(2,6-dioxo-3-piperidyl)amino]-2-fluoro-5-methoxy-phenyl]piperazin-1-yl]cyclohexyl]pyrazol-4-yl]-4-[6-[(1R,5S)-9-[(4-fluorophenyl)methyl]-3-oxa-7,9-diazabicyclo[3.3.1]nonan-7-yl]-3-pyridyl]pyrazolo[1,5-a]pyrazine-3-carbonitrile] |  |  |  | < 30 | < 100 |  |  |  | ++++ (<50 nM = ++++) | < 30 | < 50 | +++ (<100 nM = +++)
7 | N#Cc1cnn2cc(-c3cnn(C4CCN(C(=O)CC5(O)CCN(c6ccc(NC7CCC(=O)NC7=O)cc6F)CC5)CC4)c3)nc(-c3ccc(N4CCN(C(=O)c5ccon5)CC4)nc3)c12 (stereo not drawn) [Compound 116, 6-(1-(1-(2-(1-(4-((2,6-dioxopiperidin-3-yl)amino)-2-fluorophenyl)-4-hydroxypiperidin-4-yl)acetyl)piperidin-4-yl)-1H-pyrazol-4-yl)-4-(6-(4-(isoxazole-3-carbonyl)piperazin-1-yl)pyridin-3-yl)pyrazolo[1,5-a]pyrazine-3-carbonitrile] |  |  |  | < 30 | < 50 |  |  |  | ++++ (<50 nM = ++++) | < 30 | < 50 | ++++ (<50 nM = ++++)
8 | N#Cc1cnn2cc(-c3cnn(C4CCN(CCN5CCC(c6ccc(NC7CCC(=O)NC7=O)cc6F)CC5)CC4)c3)cc(-c3ccc(N4CCN(Cc5ccccn5)CC4)nc3)c12 (stereo not drawn) [Compound 12, 6-(1-(1-(2-(4-(4-((2,6-Dioxopiperidin-3-yl)amino)-2-fluorophenyl)piperidin-1-yl)ethyl)piperidin-4-yl)-1H-pyrazol-4-yl)-4-(6-(4-(pyridin-2-ylmethyl)piperazin-1-yl)pyridin-3-yl)pyrazolo[1,5-a]pyridine-3-carbonitrile] | ++++ (< 50 nM = ++++) | < 50 | < 30 | < 50 | < 100 | +++ (<50% = +++) | ++++ (< 50 nM = ++++) | < 100 |  |  |  | 
9 | N#Cc1cnn2cc(-c3cnn([C@H]4CC[C@@H](N5CCN(c6ccc(NC7CCC(=O)NC7=O)cc6F)CC5)CC4)c3)nc(-c3ccc(N4CC5CC(C4)N5CC4CCC(F)(F)CC4)nc3)c12 (single isomer, unassigned) [Compound 178, 4-(6-(6-((4,4-Difluorocyclohexyl)methyl)-3,6-diazabicyclo[3.1.1]heptan-3-yl)pyridin-3-yl)-6-(1-((1s, 4s)-4-(4-(4-((2,6-dioxopiperidin-3-yl)amino)-2-fluorophenyl)piperazin-1-yl)cyclohexyl)-1H-pyrazol-4-yl)pyrazolo[1,5-a]pyrazine-3-carbonitrile] |  |  |  | < 30 | < 50 |  |  |  | ++++ (<50 nM = ++++) | < 30 | < 50 | ++++ (<50 nM = ++++)
